# Results from PMC9354243, “The Role of Tryptophan in π Interactions in Proteins: An Experimental Approach” (Journal of the American Chemical Society, 2022).
# Tested on: LmrR variants
# Assay: SPR of the LmrR-Dau interaction at 10 and 25 °C, all LmrR variants
# Assay type: binding, Lactococcus lactis
# Procedure: The thermodynamics of the LmrR–Dau interaction was recently reported to be mostly entropy driven.[21] To investigate this point in more detail the temperature dependence of the LmrR–Dau interaction was studied by surface plasmon resonance (SPR) experiments at 10 and 25 °C. […] The average ΔΔG from 6 LmrR variants is around 0.1 kJ/mol. These values imply that the temperature effects on the ΔGs are negligible, which would be in line with a low contribution of entropic factors to the Dau–LmrR interaction.
# RibU. […]
# MALDI-TOF. […] Spots were measured using a Voyager DE-PRO MALDI-TOF (time of flight) instrument (Applied Biosystems). The incorporation efficiency of Trp analog was calculated after measuring the peak areas of the peptide conta ining either Trp or Trp analog.
# Binding assays - surface plasmon resonance (SPR). LmrR and mutants were immobilized on a CM5 sensor chip and binding of drugs was monitored using a BIACORE3000 system. The binding responses of Dau and RBF to LmrR were measured in triplicate at both 25 °C and 10 °C, in HBS-EP running buffer (10 mM HEPES, pH 7.4, 150 mM NaCl, 50 µM EDTA, and 0.005% surfactant P-20). The binding responses were corrected by subtracting the response measured in the control lane, to which a […]
compound,measurement,setting,value
"COc1cccc2c1C(=O)c1c(O)c3c(c(O)c1C2=O)C[C@@](O)(C(C)=O)C[C@@H]3O[C@H]1C[C@H](N)[C@H](O)[C@H](C)O1 [Dau, Daunomycin]",Fold increase of binding affinity at lower temperature,"10 °C versus 25 °C, all LmrR variants",1.4–3.5 fold
same,Average ΔΔG (ΔG10 °C – ΔG25 °C),average from 6 LmrR variants,around 0.1 kJ/mol
